Patent US20150366819A1, “COMPOSITIONS AND METHODS FOR TREATING HOOF DISEASES” (AGROCHEM, INC., priority 2008, published 2015)

What was measured:
[1] = test system: Hydrolyzed Bovine Dry Collagen protein medium; assay: Cross-linking test: skin (crust) formation on protein medium after spraying
Description: Tests were performed in order to obtain a skin (crust) on the protein medium by using a cross-linking agent. Time, temperature and skim formation were monitored. Tests were performed at 40° F.—both medium and solutions were cooled to test temperature. Test medium was prepared by mixing a solution containing 85% D.I. water and 15% Hydrolyzed Bovine Dry Collagen (purchased from Milligan & Higgens). Approx 4 oz of the preparation was put into Petri dishes, placed in a refrigerator for thirty minutes before reacclimatizing at room temperature, ready for testing. Subsequently, the various test solutions were poured into 4 oz bottles with spray nozzles and 10 ml of solution was sprayed onto the medium in the petri dishes from a distance of 6 inches, timed and viewed at 15 minute intervals and the contents of the petri dish was then scored for skin formation. The time and extent of skin formation was noted and transposed to graphs (see FIGS. 1-4).
A second series of tests were run using Egg Albumin Powder (purchased from J.T. Baker) as the protein medium, prepared by mixing 85% D.I. water and 15% Egg Albumin Powder. Both test produced identical results.
Lab testing was performed to assess cross-linking ability of various compositions. […]

[2] = test system: digital dermatitis lesions; assay: Actual field application on digital dermatitis lesions (scab formation); type: in vivo, cow; details: glutaraldehyde at less than 5%, applied on digital dermatitis lesions

O=CCCCC=O [glutaraldehyde]
cross-linking of test samples (in words) ([1]; glutaraldehyde reduced to less than 5%, FIG. 2): significantly less cross-linking | facilitating adequate scab formation in an acceptable time span [2]: ineffective

O=CC=O [glyoxal]
cross-linking effects, maximum extent of skin formation ([1]; glyoxal alone, scored from 0 to 10, FIG. 3): 2.5
